A short description of experiment [1]: Disruption of 6-his tagged KRAS G12D mutant/BRAF RBD complex (unknown origin) incubated for 3 hrs in the presence of CYPA by TR-FRET assay. On the set-up: species or system Homo sapiens. In general terms: In TR-FRET formats the signal depends on donor and acceptor labels being close together.
Experiment [2] is described as follows: Disruption of 6his-tagged KRAS G12C mutant/BRAF RBD complex (unknown origin) incubated for 3 hrs in the presence of CYPA by TR-FRET assay. On the set-up: species or system Homo sapiens.
Experiment [3] in a line: Disruption of 6-his tagged KRAS G12V mutant/BRAF RBD complex (unknown origin) incubated for 3 hrs in the presence of CYPA by TR-FRET assay. On the set-up: species or system Homo sapiens.
In the next experiment the test system is NCI-H358. The experiment is described as follows: Anticancer activity against human NCI-H358 cells harboring KRAS G12C mutant assessed as inhibition of cell viability incubated for 72 hrs by cell counting kit 8 method. The experiment is classed as functional, cell-based. As to conditions: NCI-H358, 72 h. On the technique in general: Formazan colour is commonly taken as a measure of viable cells.

In another experiment the test system is SW-620. The experiment is described as follows: Anticancer activity against human SW620 cells harboring KRAS G12V mutant assessed as inhibition of cell viability incubated for 72 hrs by cell counting kit 8 method. The following applies: SW-620, 72 h. It counts as functional, cell-based.
The next experiment deals with AGS. Put plainly: Anticancer activity against human AGS cells harboring KRAS G12D mutant assessed as inhibition of cell viability incubated for 72 hrs by cell counting kit 8 method. The experiment is classed as functional, cell-based.
Experiment [4] is described as follows: Inhibition of ERK phosphorylation in human AGS cells harboring KRAS G12D mutant incubated for 4 hrs by absorbance based analysis. The experiment is classed as cell-based.
Experiment [5] in a line: Inhibition of ERK phosphorylation in human SW620 cells harboring KRAS G12V mutant incubated for 4 hrs by absorbance based analysis. It counts as cell-based. The following applies: SW-620, 4 h.
Experiment [6] in a line: Inhibition of ERK phosphorylation in human NCI-H358 cells harboring KRAS G12C mutant incubated for 4 hrs by absorbance based analysis. The experiment is classed as cell-based. The following applies: NCI-H358, 4 h.

For the compound `CO[C@@H](C)c1ncccc1-c1c2c3cc(cc4c3n1CCC4)-c1cc(O)cc(c1)C[C@H](NC(=O)[C@H](C(C)C)N(C)C(=O)C1(F)CCN(C(=O)[C@H](F)Cl)CC1)C(=O)N1CCC[C@H](N1)C(=O)OCC(C)(C)C2`, the IC50 in experiment [1] is 1880 nM; in experiment [2] it was 6 nM; in experiment [3] it was 164 nM.
`CO[C@@H](C)c1ncc(N2CCOCC2)cc1-c1c2c3cc(cc4c3n1CC(F)(F)C4)-c1csc(n1)C[C@H](NC(=O)[C@H](C(C)C)N(C)C(=O)C1(F)CCN(C(=O)[C@H](F)Cl)CC1)C(=O)N1CCC[C@H](N1)C(=O)OCC(C)(C)C2`: the results for the IC50 in the experiment on NCI-H358, with SW-620 and in the experiment with AGS were 8 nM, 26 nM and 16 nM, respectively.
On to `CO[C@@H](C)c1ncc(N2CCOCC2)cc1-c1c2c3cc(cc4c3n1CCC4)-c1csc(n1)C[C@H](NC(=O)[C@H](C(C)C)N(C)C(=O)C1(F)CCN(C(=O)[C@H](F)Cl)CC1)C(=O)N1CCC[C@H](N1)C(=O)OCC(C)(C)C2`, for which the figures for the IC50 in experiment [4], in experiment [5] and in experiment [6] were over 10000 nM, 23 nM and 1 nM, respectively.
Take `CO[C@@H](C)c1ncccc1-c1c2c3cc(cc4c3n1CCO4)-c1cc(O)cc(c1)C[C@H](NC(=O)[C@H](C(C)C)N(C)C(=O)C1(F)CCN(C(=O)[C@H](F)Cl)CC1)C(=O)N1CCC[C@H](N1)C(=O)OCC(C)(C)C2`: the IC50 in [1] stood at 3910 nM; in [2], 16 nM; in experiment [3], 445 nM.
Take `CO[C@@H](C)c1ncc(N2CCN(C)CC2)cc1-c1c2c3cc(cc4c3n1CCC4)-c1csc(n1)C[C@H](NC(=O)[C@H](C(C)C)N(C)C(=O)C1(F)CCN(C(=O)[C@H](F)Cl)CC1)C(=O)N1CCC[C@H](N1)C(=O)OCC(C)(C)C2`: the results for the IC50 in the experiment on NCI-H358, with SW-620 and in the experiment with AGS were 2 nM, 107 nM and 292 nM, respectively.
Take `CO[C@@H](C)c1ncc(N2CCN(C)CC2)cc1-c1c2c3cc(cc4c3n1CCC4)-c1csc(n1)C[C@H](NC(=O)[C@H](C(C)C)N1CCC3(CN(C(=O)[C@H](F)Cl)C3)C1=O)C(=O)N1CCC[C@H](N1)C(=O)OCC(C)(C)C2`: the results for the IC50 in experiment [4], in experiment [5] and in [6] were 62 nM, 38 nM and 19 nM, respectively.

Usually IC50 stands for the point on the concentration scale where inhibition reaches its midpoint.

For the origin of these results see ChEMBL document CHEMBL6153168, “Novel Tricyclic KRAS Inhibitors for the Treatment of Cancer” (ACS Med Chem Lett, 2025).
